Reference: patent US20260069539A1, “LIPIDOID COMPOUNDS AND RELATED COMPOSITIONS AND USES” (Poseida Therapeutics, Inc., priority 2023, published 2026)

Columns and labels:
liver cells [1] = assay: In vivo LNP delivery of DNA encoding firefly luciferase, bioluminescent imaging (BLI) at 48 hr; design: species or system BALB/C mice; conditions: for Total Flux: Example 103, 0.5 mg/kg DNA intravenous; for Total Flux / Mean Luciferase Flux (p/s): BLI at 48 hr; for Mean Luciferase Flux (p/s): adult BALB/C mice, 0.5 mg/kg DNA encoding firefly luciferase in LNP
Procedure: Adult BALB/C mice (n=3) were administered 0.5 mg/kg of DNA encoding firefly luciferase (Nature Technology Corp) formulated in a LNP composition listed in Table 4. One group of mice was treated with vehicle (PBS, Thermo Fisher Scientific, USA) as a negative control.
The location and extent of luciferase expression in treated and control mice were determined at 48 hr for DNA delivery by bioluminescent imaging (BLI) of anesthetized mice using an IVIS Lumina in vivo imaging system (Perkin Elmer) according to the manufacturer's instructions. Briefly, mice were anesthetized using isoflurane in oxygen, and placed supine on a heated stage. Mice were then administered D-luciferin (Perkin-Elmer #122799) IP, and BLI was performed.
The location and extent of luciferase expression in treated and control mice were determined at 48 hr for DNA by bioluminescent imaging (BLI) of anesthetized mice using an IVIS Lumina in vivo imaging system (Perkin Elmer) according to the manufacturer's instructions. Briefly, mice were anesthetized using isoflurane in oxygen, and placed supine on a heated stage. Mice were then administered D-luciferin (Perkin-Elmer #122799) IP, and BLI was performed. […]
Body weight loss (BWL) measurements were taken at 24 hrs post administration and luciferase expression was measured by whole body luminescence imaging (BLI) at 48 hours post-administration. […]
Luciferase expression was measured by whole body luminescence imaging (BLI) at 48 hours post-administration.

liver cells [2] = assay: In vivo LNP delivery of fLuciferase mRNA, bioluminescent imaging (BLI) at 4 hr; design: species or system BALB/C mice; conditions: for Total Flux: 0.5 mg/kg fLuciferase mRNA intravenous; for Mean Luciferase Flux: 0.5 mg/kg fLuc mRNA i.v., 4 hr
Procedure: Adult female BALB/C mice (n=3/group) were intravenously administered 0.5 mg/kg of 5′-CleanCap—fLuciferase mRNA (TriLink Biotech) formulated with the LNP compositions shown in Table 6. One group of mice was treated with vehicle (PBS, Thermo Fisher Scientific, USA) as a negative control.
The location and extent of luciferase expression in treated and control mice were determined at 4 hr for mRNA and 48 hr for DNA by bioluminescent imaging (BLI) of anesthetized mice using an IVIS Lumina in vivo imaging system (Perkin Elmer) according to the manufacturer's instructions. Briefly, mice were anesthetized using isoflurane in oxygen, and placed supine on a heated stage. Mice were then administered D-luciferin (Perkin-Elmer #122799) IP, and BLI was performed.
(§1) The location and extent of luciferase expression in treated and control mice were determined at 4 hr by bioluminescent imaging (BLI) of anesthetized mice using an IVIS Lumina in vivo imaging system (Perkin Elmer) according to the manufacturer's instructions. Briefly, mice were anesthetized using isoflurane in oxygen, and placed supine on a heated stage. Mice were then administered D-luciferin (Perkin-Elmer #122799) IP, and BLI was performed.
as §1
The location and extent of luciferase expression in treated and control mice were determined at 4 hr by bioluminescent imaging (BLI) of anesthetized mice using an IVIS Lumina in vivo imaging system (Perkin Elmer) according to the manufacturer's instructions.
Briefly, mice were anesthetized using isoflurane in oxygen, and placed supine on a heated stage. Mice were then administered D-luciferin (Perkin-Elmer #122799) IP, and BLI was performed.
as §1

[3] = Example 104, experiment of Table 64, BLI at 4 hr
[4] = LNP with 50 % moles of COMPOUND NO. 38 or 39 (DOPC 10/Chol 38.5/PEG-DMG 1.5, Lipid:RNA 80)
[5] = LNP with 40.75 % moles of the compound (DOPC 5.0/Chol 51.75/PEG-DMG 2.5, Lipid:RNA 100)
[6] = Table 13 experiment, LNP with 50 % moles of the compound (DOPC 10/Chol 38.5/PEG-DMG 1.5, Lipid:RNA 80)
[7] = Example 104, experiment of Table 63, BLI at 4 hr
[8] = Example 104, experiment of Table 65, BLI at 4 hr

What does the source list for `CCCCCCCCCCCC(=O)OCC(COC(=O)CCCCCCCCCCC)COC(=O)CCCCCN(CCO)CCCCCC(=O)OCC(COC(=O)CCCCCCCCCCC)COC(=O)CCCCCCCCCCC` [compound 100, reference compound]?
DNA delivery potency (liver cells [1]; 0.5 mg/kg DNA, BLI 48 hr, compared to LNPs comprising COMPOUND NOS. 36, 37, or 38): greatly reduced; Total Flux (liver cells [1]; LNP comprising compound 100, composition not stated): 1.97E+07 p/s; RNA delivery potency (liver cells [2]; 0.5 mg/kg fLuciferase mRNA in LNP, BLI at 4 hr): RNA delivery potency increases with increasing number of cyclohexyl-substituted tails; Total Flux (liver cells [2]; [3]): 3.24E+10 p/s

With `CCCCCC1CCC(C(=O)OCCOC(=O)CCN(CCCN(C)CCN(CCC(=O)OCCOC(=O)[C@H]2CC[C@H](CCCCC)CC2)CCC(=O)OCCOC(=O)[C@H]2CC[C@H](CCCCC)CC2)CCC(=O)OCCOC(=O)C2CCC(CCCCC)CC2)CC1` (stereo partly shown) [COMPOUND NO. 4] as the compound, how does the “Mean Luciferase Flux (p/s)” value (liver cells [1]) read?
The value was 1.36E+09 p/s.

How did the “Total Flux” value (liver cells [1]; LNP with 10% DSPC) turn out when `CCCCC[C@H]1CC[C@H](C(=O)OCC(COC(=O)CCCCCN(CCCCO)CCCCCC(=O)COC(COC(=O)[C@H]2CC[C@H](CCCCC)CC2)COC(=O)[C@H]2CC[C@H](CCCCC)CC2)COC(=O)[C@H]2CC[C@H](CCCCC)CC2)CC1` [COMPOUND NO. 38] was run?
The value was 8.29E+07 p/s.

And the “Mean Luciferase Flux” value (liver cells [2]; [4])?
The value was 1.17E+11 p/s.

For `CN(CCCN(CCC(=O)OCC1CCC(CCCCC2CCCCC2)CC1)CCC(=O)OCC1CCC(CCCCC2CCCCC2)CC1)CCCN(CCC(=O)OCC1CCC(CCCCC2CCCCC2)CC1)CCC(=O)OCC1CCC(CCCCC2CCCCC2)CC1` (stereo not shown) [COMPOUND NO. 2], which “Mean Luciferase Flux” value (liver cells [2]; [5]) is on record?
Its value is 2.53E+07 p/s.

Which “Total Flux” value (liver cells [1]; LNP with 10% DOPC) does the source give for `CCCCC[C@H]1CC[C@H](C(=O)OCC(COC(=O)CCCCCN(CCCCCC(=O)COC(COC(=O)[C@H]2CC[C@H](CCCCC)CC2)COC(=O)[C@H]2CC[C@H](CCCCC)CC2)CCCCNC(C)=O)COC(=O)[C@H]2CC[C@H](CCCCC)CC2)CC1` [COMPOUND NO. 39] here?
Its value is 2.03E+06 p/s.

What about the “Mean Luciferase Flux” value (liver cells [2]; [4]) of the same compound?
Its value is 9.49E+10 p/s.

With `CCCCC[C@H]1CC[C@H](C(=O)OCC(COC(=O)CCCCCN(CCCCCC(=O)OCC(COC(=O)[C@H]2CC[C@H](CCCCC)CC2)COC(=O)[C@H]2CC[C@H](CCCCC)CC2)CC(O)CO)COC(=O)[C@H]2CC[C@H](CCCCC)CC2)CC1` (mixture of isomers) [COMPOUND NO. 59] as the compound, how does the “Total Flux” value (liver cells [2]; [3]) read?
The value was 1.06E+11 p/s.

`CCCCCCCCC(CCCCCC)C(=O)O[C@H]1CC[C@H](OC(=O)CCCCCN(CCCO)CCCCCC(=O)O[C@H]2CC[C@H](OC(=O)C(CCCCCC)CCCCCCCC)CC2)CC1` (stereo partly shown) [COMPOUND NO. 28] was tested. Which “Mean Luciferase Flux” value (liver cells [2]; [6]) did it give?
The value was 3.28E+10 p/s.

With `CCCCCCCCC(CCCCCC)C(=O)OC1CCC(OC(=O)CCCCCN(CCO)CCCCCCCOC(=O)C2CCC(CCCCC)CC2)CC1` (stereo not shown) [COMPOUND NO. 33] as the compound, how does the “Mean Luciferase Flux” value (liver cells [2]; [6]) read?
Its value is 1.73E+10 p/s.

How did the “Total Flux” value (liver cells [2]; [7]) turn out when `CCCCC[C@H]1CC[C@H](C(=O)OCC(COC(=O)CCCCCN(CCCCCC(=O)OCC(COC(=O)[C@H]2CC[C@H](CCCCC)CC2)COC(=O)[C@H]2CC[C@H](CCCCC)CC2)[C@H]2CC[C@H](CO)CC2)COC(=O)[C@H]2CC[C@H](CCCCC)CC2)CC1` [COMPOUND NO. 54] was run?
The value was 1.30E+11 p/s.

For `O=C(CCCCCN(CCO)CCCCCC(=O)OCC(COC(=O)CCCCC1CCCCC1)COC(=O)CCCCC1CCCCC1)OCC(COC(=O)CCCCC1CCCCC1)COC(=O)CCCCC1CCCCC1` [COMPOUND NO. 65], which “Total Flux” value (liver cells [2]; [7]) is on record?
The value was 1.30E+11 p/s.

For `O=C(CCCCCN(CCCCO)CCCCCC(=O)OCC(COC(=O)CCCCC1CCCCC1)COC(=O)CCCCC1CCCCC1)OCC(COC(=O)CCCCC1CCCCC1)COC(=O)CCCCC1CCCCC1` [COMPOUND NO. 67], which “Total Flux” value (liver cells [2]; [8]) is on record?
Its value is 3.79E+11 p/s.

`CCCCC[C@H]1CC[C@H](C(=O)OCC(COC(=O)CCCCN(CCCO)CCCCC(=O)OCC(COC(=O)[C@H]2CC[C@H](CCCCC)CC2)COC(=O)[C@H]2CC[C@H](CCCCC)CC2)COC(=O)[C@H]2CC[C@H](CCCCC)CC2)CC1` [COMPOUND NO. 72] was tested. Which “Total Flux” value (liver cells [2]; [8]) did it give?
Its value is 2.40E+11 p/s.

How did the “Mean Luciferase Flux” value (liver cells [2]; [6]) turn out when `CCCCCCCCC(CCCCCCCC)OC(=O)C1CCC(C(=O)OCCCCCN(CCO)CCCCCCCOC(=O)C2CCC(CCCCC)CC2)CC1` (stereo not shown) [COMPOUND NO. 34] was run?
Its value is 1.87E+10 p/s.

`CCCCC[C@H]1CC[C@H](C(=O)OCCCCCN(CCO)CCCOC(=O)[C@H]2CC[C@H](CCCCC)CC2)CC1` [COMPOUND NO. 21] was tested. Which “Mean Luciferase Flux” value (liver cells [2]; [6]) did it give?
Its value is 1.27E+08 p/s.

How did the “Mean Luciferase Flux” value (liver cells [2]; [6]) turn out when `CCCCCCCCC(CCCCCCCC)OC(=O)[C@H]1CC[C@H](C(=O)OCCCCCN(CCCCO)CCCCCOC(=O)[C@H]2CC[C@H](C(=O)OC(CCCCCCCC)CCCCCCCC)CC2)CC1` [COMPOUND NO. 32] was run?
Its value is 7.76E+09 p/s.

Which “Mean Luciferase Flux” value (liver cells [2]; [5]) does the source give for `CN(CCCN(CCC(=O)OCCOC(=O)CCCCC1CCCCC1)CCC(=O)OCCOC(=O)CCCCC1CCCCC1)CCCN(CCC(=O)OCCOC(=O)CCCCC1CCCCC1)CCC(=O)OCCOC(=O)CCCCC1CCCCC1` [COMPOUND NO. 5] here?
Its value is 2.84E+11 p/s.

What about the “Mean Luciferase Flux” value (liver cells [2]; LNP with 43.17 % moles of the compound (DOPC 11.96/Chol 43.17/PEG-DMG 1.7, Lipid:RNA 100)) of the same compound?
Its value is 7.16E+10 p/s.

And the “Mean Luciferase Flux” value (liver cells [2]; LNP with 54.0 % moles of the compound (DOPC 10.0/Chol 35.0/PEG-DMG 1.0, Lipid:RNA 100))?
Its value is 7.25E+08 p/s.

For `CCCCC[C@H]1CC[C@H](C(=O)OCC(COC(=O)CCCCN(CCO)CCCCC(=O)OCC(COC(=O)[C@H]2CC[C@H](CCCCC)CC2)COC(=O)[C@H]2CC[C@H](CCCCC)CC2)COC(=O)[C@H]2CC[C@H](CCCCC)CC2)CC1` [COMPOUND NO. 71], which “Total Flux” value (liver cells [2]; [8]) is on record?
Its value is 1.78E+11 p/s.

Which “Total Flux” value (liver cells [1]; LNP with 10% DOPC) does the source give for `CCCCC[C@H]1CC[C@H](C(=O)OCC(COC(=O)CCCCCN(CCCCCC(=O)OCC(COC(=O)[C@H]2CC[C@H](CCCCC)CC2)COC(=O)[C@H]2CC[C@H](CCCCC)CC2)[C@H]2CC[C@H](O)CC2)COC(=O)[C@H]2CC[C@H](CCCCC)CC2)CC1` [COMPOUND NO. 53] here?
The value was 4.23E+07 p/s.

How did the “Mean Luciferase Flux (p/s)” value (liver cells [1]) turn out when `CCCCCC1CCC(C(=O)OCCOC(=O)CCN(CCCN(C)CCCN(CCC(=O)OCCOC(=O)[C@H]2CC[C@H](CCCCC)CC2)CCC(=O)OCCOC(=O)[C@H]2CC[C@H](CCCCC)CC2)CCC(=O)OCCOC(=O)C2CCC(CCCCC)CC2)CC1` (stereo partly shown) [COMPOUND NO. 3] was run?
Its value is 2.12E+08 p/s.

How did the “Total Flux” value (liver cells [2]; [7]) turn out when `CCCCC[C@H]1CC[C@H](C(=O)OCC(COC(=O)CCCCCN(CCCCCO)CCCCCC(=O)OCC(COC(=O)[C@H]2CC[C@H](CCCCC)CC2)COC(=O)[C@H]2CC[C@H](CCCCC)CC2)COC(=O)[C@H]2CC[C@H](CCCCC)CC2)CC1` [COMPOUND NO. 51] was run?
The value was 2.65E+10 p/s.

Which “Total Flux” value (liver cells [2]; [8]) does the source give for `CCCCC[C@H]1CC[C@H](C(=O)OCC(COC(=O)CCCCN(CCCCO)CCCCC(=O)OCC(COC(=O)[C@H]2CC[C@H](CCCCC)CC2)COC(=O)[C@H]2CC[C@H](CCCCC)CC2)COC(=O)[C@H]2CC[C@H](CCCCC)CC2)CC1` [COMPOUND NO. 73] here?
Its value is 1.61E+11 p/s.
